Where two headings read alike, the source gives them in different places.
Experiments:
[1] = test system: 3D7-strain P. falciparum asexual parasites; test: P. falciparum asexual growth inhibition assay (Pf GIA); type: cell-based, Plasmodium falciparum; conditions: dose response confirmation; read-out: Pf asexual growth inhibition assays IC50
Method in brief: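 3D7 parasites at 0.25% parasitemia, 2% hematocrit were exposed to compounds in dose response for 72 h at 37°C under 5% CO2, 5% O2. Viability read as parasite LDH activity (nitro blue tetrazolium, A650) after freeze-thaw; inhibition scaled to chloroquine (50 μM) and DMSO controls, mean of three biological replicates.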

[2] = test system: HepG2 cells; test: HepG2 cytotoxicity assay; conditions: for IC50: read-out: HepG2 cytotoxicity assay IC50, dose response confirmation; for Pb ODA (this manuscript) HepG2 cytoxicity: HepG2 cytotoxicity listed with the Pb ODA data set (this manuscript)
Method in brief: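 Cells at 2,500 per well in MEM with 10% fetal bovine serum and 1% NEAA were exposed to test compounds for 48 h at 37°C, 5% CO2. Viability was read by fluorescence, with percent inhibition calculated against 50 μM doxorubicin (positive) and DMSO (negative) controls.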

[3] = test system: P. berghei ookinete development; conditions: for % inhibition, Replicate A / % inhibition, Replicate B: primary screen at 1 μM
[4] = HepG2 values of the three screens unified
[5] = read-out: Pb ODA IC50, this manuscript
[6] = read-out: Pb Ookinete development assay IC50, dose response confirmation
[7] = read-out: Pb ODA (this manuscript) IC50, P. berghei ookinete development assay, this manuscript
[8] = unified HepG2 value across the three screens

Structure (SMILES)	IC50 [1]	HepG2 cytoxicity (Pb ODA, this manuscript) [2]	Unified cytotox [2, 4]	IC50 [2]	Is compound selective in assay? Pb ODA active? ([3]; 1: YES, 0: NO)	% inhibition, Replicate A [3]	% inhibition, Replicate B [3]	IC50 [3, 5]	IC50 [3, 6]	Pb ODA (this manuscript) HepG2 cytoxicity [2]	Is compound selective in assay? Pb ODA active? [3]	IC50 [3, 7]	Unified cytotox [2, 8]
Nc1nc(N)c2c(ccc3c2ccn3Cc2cccc3ccccc23)n1 [TCMDC-137996]	151 nM	0.0017 µM	0.0017 µM	1.7 nM	0 (0: NO)	55.22%	70.48%	5760 nM	5760 nM	–	–	–	–
CC(C)Cn1ccc2c3c(N)nc(N)nc3ccc21 [TCMDC-137997]	19 nM	0.25 µM	0.25 µM	250 nM	0 (0: NO)	52.84%	64.75%	1400 nM	1400 nM	–	–	–	–
CCCCCCc1c(C)nc2cc(OC)ccc2c1O [TCMDC-138010]	163 nM	–	–	100000 nM	–	110.05%	119.15%	–	81 nM	100.00 µM	1 (key: 1: YES; 0: NO)	80 nM	–
CCCCCCCc1c(C)nc2cccc(OC)c2c1O [TCMDC-138014]	1990 nM	–	–	5500 nM	–	63.12%	36.77%	–	1140 nM	5.50 µM	0 (key: 1: YES; 0: NO)	1150 nM	–
CCCCCCCc1c(C)nc2c(OC)cccc2c1O [TCMDC-138016]	195 nM	–	–	100000 nM	–	91.04%	66.93%	–	529 nM	100.00 µM	1 (key: 1: YES; 0: NO)	530 nM	–
CCC(CC)n1cc2c(ccc3nc(N)nc(N)c32)n1 [TCMDC-138019]	60 nM	–	–	1.7 nM	–	5.46%	62.28%	–	8220 nM	0.0017 µM	0 (key: 1: YES; 0: NO)	8220 nM	–
COc1ccc(Cc2c(N)nc3nc(N)nc(N)c3c2C)cc1.Cl [TCMDC-138061]	142 nM	–	–	55 nM	–	-0.33%	51.34%	–	5180 nM	0.055 µM	0 (key: 1: YES; 0: NO)	5180 nM	–
COc1ccc(-c2nc3c(N)nc(N)nc3nc2-c2ccccc2Cl)cc1.COc1ccc(-c2nc3nc(N)nc(N)c3nc2-c2ccccc2Cl)cc1.Cl [TCMDC-138100]	1550 nM	–	–	73300 nM	0 (0: NO)	50.02%	33.60%	8260 nM	8260 nM	–	–	–	73.28 µM
CC(O)C(C)(CO)NCc1ccc2c3c(cccc13)-c1ccccc1-2.Cl (stereo not shown) [TCMDC-138117]	490 nM	–	–	4470 nM	0 (0: NO)	18.85%	67.10%	610 nM	608 nM	–	–	–	4.47 µM
COc1ccc2c(=O)c(I)c(C)[nH]c2c1 [TCMDC-138141]	< 0.3 nM	–	–	1.7 nM	–	99.28%	96.77%	–	140 nM	0.0017 µM	0 (key: 1: YES; 0: NO)	–	–
Cc1ccc2c(=O)c3cc(C)ccc3[nH]c2c1 [TCMDC-138194]	176 nM	–	–	63800 nM	1 (1: YES)	98.56%	107.67%	220 nM	217 nM	–	–	–	63.83 µM
COc1ccc(Cn2c(Nc3cccc(C(F)(F)F)c3)nc3cc(C(=O)NC(C)C)cnc32)cc1Cl [TCMDC-138556]	1400 nM	–	–	51300 nM	0 (0: NO)	25.40%	50.20%	5440 nM	5440 nM	–	–	–	51.29 µM
Nc1nc(N)c2c(ccc3c2ccn3CCCC(F)(F)F)n1 [TCMDC-138622]	105 nM	0.37 µM	0.37 µM	370 nM	0 (0: NO)	33.98%	53.93%	6060 nM	6060 nM	–	–	–	–
Nc1nc(N)c2c(ccc3c2ccn3CCCF)n1 [TCMDC-138623]	122 nM	1.10 µM	1.10 µM	1100 nM	0 (0: NO)	92.24%	33.21%	1890 nM	1890 nM	–	–	–	–
CN1CCN(c2ccc(Nc3nccc(-c4cnn5ncccc45)n3)cc2Cl)CC1 [TCMDC-138688]	929 nM	–	–	46800 nM	1 (1: YES)	69.14%	64.46%	1800 nM	1800 nM	–	–	–	46.77 µM
CC(=O)c1ccc(NC(=O)Nc2ccc(N(C)c3ccnc(Nc4cccc(CS(C)(=O)=O)c4)n3)cc2)cc1 [TCMDC-138736]	607 nM	–	–	2110 nM	1 (1: YES)	94.55%	90.04%	200 nM	202 nM	–	–	–	2.11 µM
Cc1[nH]c(C)c(-c2ccc(Oc3ccc(OC(F)(F)F)cc3)cc2)c(=O)c1Br [TCMDC-138826]	274 nM	–	–	75900 nM	–	67.69%	78.09%	–	7890 nM	75.86 µM	0 (key: 1: YES; 0: NO)	7890 nM	–
Cc1ccc(Nc2nc3cc(N(C)c4ccnc(Nc5cccc(CCS(C)(=O)=O)c5)n4)ccc3n2C)cc1.O=C(O)C(F)(F)F [TCMDC-138853]	0.433 nM	–	–	3310 nM	0 (0: NO)	113.72%	29.45%	1880 nM	1880 nM	–	–	–	3.31 µM
Cc1[nH]c(C)c(-c2ccc(OCc3ccccc3)cc2)c(=O)c1Br [TCMDC-138901]	108 nM	–	–	100000 nM	–	91.81%	92.28%	–	224 nM	100.00 µM	1 (key: 1: YES; 0: NO)	220 nM	–
OCCc1ccc(Nc2nccc(-c3nnc4ccccn34)n2)cc1 [TCMDC-138924]	< 0.2 nM	–	–	100000 nM	1 (1: YES)	70.77%	81.57%	400 nM	395 nM	–	–	–	100.00 µM
Cc1[nH]c(C)c(-c2ccc(OCc3ccc(F)cc3)cc2)c(=O)c1Br [TCMDC-138928]	108 nM	–	–	100000 nM	–	93.24%	106.54%	–	595 nM	100.00 µM	1 (key: 1: YES; 0: NO)	600 nM	–
CCCOc1cc(OCCC)cc(-c2cc(=O)c3ccccc3[nH]2)c1 [TCMDC-138943]	76 nM	–	–	100000 nM	1 (1: YES)	86.05%	83.39%	550 nM	547 nM	–	–	–	100.00 µM
COc1ccc2nc3cc(Cl)ccc3c(NCCN(C)C)c2c1 [TCMDC-139093]	48 nM	–	–	15800 nM	–	73.14%	67.89%	–	2200 nM	15.85 µM	0 (key: 1: YES; 0: NO)	–	–
CN1Cc2cc(NC(=O)/C=C/c3ccccc3Cl)ccc2C(C)(C)C1.Cl [TCMDC-139315]	679 nM	–	–	20400 nM	1 (1: YES)	114.62%	130.13%	560 nM	563 nM	–	–	–	20.42 µM
O=c1cc(NCCCN(Cc2ccccc2)Cc2ccccc2)[nH]c2ccccc12 [TCMDC-139368]	1120 nM	–	–	33900 nM	1 (1: YES)	31.96%	60.20%	2870 nM	2870 nM	–	–	–	33.88 µM
